Assay results published in patent publication US7626021B2, “Fused ring heterocycle kinase modulators” (SGX Pharmaceuticals, Inc., priority 2004, dated 2009).

target: T1, Abl Y393F (Mus musculus, UniProt P00520, Y393F); assay: Abl Y393F kinase enzyme assay; type: biochemical; details: read-out: Abl_Y393F IC50
T1 construct: 0.4 μg/ml Abl kinase domain; Met-Ser-Leu (vector-derived) (N); made in house
T1 sequence (P00520 242-493 Y393F limits assumed): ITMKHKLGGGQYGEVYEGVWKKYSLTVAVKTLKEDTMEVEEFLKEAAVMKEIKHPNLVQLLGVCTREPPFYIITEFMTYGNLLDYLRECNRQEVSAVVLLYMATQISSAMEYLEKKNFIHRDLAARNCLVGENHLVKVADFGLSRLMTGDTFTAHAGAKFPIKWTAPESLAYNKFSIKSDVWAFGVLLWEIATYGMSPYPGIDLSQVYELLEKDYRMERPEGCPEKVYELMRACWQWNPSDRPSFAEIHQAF
From the text: Although the first of these examples uses the kinase domain of a mutant form of Abl T315I (“Abl T315I KD”), the kinase assays may use various forms of mutant and wild type enzymes, including, for example, the entire protein, the kinase domain, or a portion thereof (e.g. Abl Y393F). The kinases used in the assays may also be of varying phosphorylation states. In the c-Abl example, a mutant kinase at a zero phosphorylation state was used.
(§1) In addition to the c-Abl PK/LDH coupled assay (above), homogeneous luminescence-based inhibitor screening assays were developed for c-Abl, MET, AurA, and PDK1 kinases (among others). Each of these assays made use of an ATP depletion assay (Kinase-Glo™, Promega Corporation, Madison, Wis.) to quantitate kinase activity. The Kinase-Glo™ format uses a thermostable luciferase to generate luminescent signal from ATP remaining in solution following the kinase reaction. The luminescent signal is inversely correlated with the amount of kinase activity.
cAbl Luminescence-Based Enzyme Assay
Materials: Abl substrate peptide=EAIYAAPFAKKK SEQ ID NO:1)-OH (Biopeptide, San Diego, Calif.), ATP (Sigma Cat#A-3377, FW=551), HEPES buffer, pH 7.5, Bovine serum albumin (BSA) (Roche 92423420), MgCl2, Staurosporine (Streptomyces sp. Sigma Cat#85660-1MG), white Costar 384-well flat-bottom plate (VWR Cat#29444-088), Abl kinase (see below), Kinase-Glo™ (Promega Cat#V6712).
Stock Solutions: 10 mM Abl substrate peptide (13.4 mg/ml in miliQH2O) stored at −20° C.; 100 mM HEPES buffer, pH 7.5 (5 ml 1M stock+45 ml miliQH2O); 10 mM ATP (5.51 mg/ml in dH2O) stored at −20° C. (diluted […] into total of 10 ml miliQH2O daily=50 μM ATP working stock); 1% BSA (1 g BSA in 100 ml 0.1 M HEPES, pH 7.5, stored at −20° C.), 100 mM MgCl2; 200 μM Staurosporine, 2× Kinase-Glo™ reagent (made fresh or stored at −20° C.).
(§2) Standard Assay Setup for 384-well format (20 μl kinase reaction, 40 μl detection reaction): 10 mM MgCl2; 100 μM Abl substrate peptide; 0.1% BSA; 1 μl test compound (in DMSO); 0.4 μg/ml Abl kinase domain; 10 μM ATP; 100 mM HEPES buffer. Positive controls contained DMSO with no test compound. Negative controls contained 10 μM staurosporine. The kinase reactions were initiated at time t=0 by the addition of ATP. Kinase reactions were incubated at 21° C. for 30 min, then 20 μl of Kinase-Glo™ reagent were added to each well to quench the kinase reaction and initiate the luminescence reaction. After a 20 min incubation at 21° C., the luminescence was detected in a plate-reading luminometer.

IC50	Structure (SMILES)
< 1000 nM	COc1ccccc1-c1n[nH]c2ncc(Br)cc12
< 1000 nM	Oc1cccc(-c2cnc3[nH]nc(-c4ccccc4)c3c2)c1
< 1000 nM	COc1ccccc1-c1n[nH]c2ncc(-c3cccc(C(=O)N(C)C)c3)cc12
< 1000 nM	CCOc1ccccc1-c1n[nH]c2ncc(-c3cccc(C(=O)N4CCOCC4)c3)cc12
< 1000 nM	COc1ncc(-c2n[nH]c3ncc(-c4cccc(C(=O)N5CCOCC5)c4)cc23)c(OC)n1
< 1000 nM	COc1ccccc1-c1cnc2[nH]nc(-c3ccccc3OC)c2c1
< 1000 nM	COc1ccccc1-c1n[nH]c2ncc(-c3cccc(C(=O)NC(C)C)c3)cc12
< 1000 nM	O=C(c1cccc(-c2cnc3[nH]nc(-c4ccc5cc[nH]c5c4)c3c2)c1)N1CCOCC1
< 1000 nM	COc1ccccc1-c1n[nH]c2ncc(-c3cccc(C(=O)N4CCN(C)CC4)c3)cc12
< 1000 nM	COc1c(F)cccc1-c1n[nH]c2ncc(-c3cccc(C(=O)N4CCOCC4)c3)cc12
< 1000 nM	COc1ccccc1-c1n[nH]c2ncc(-c3cccc(C(=O)N4CCC(CO)CC4)c3)cc12
< 1000 nM	O=C(c1cccc(-c2cnc3[nH]nc(-c4cccc5cccnc45)c3c2)c1)N1CCOCC1
< 1000 nM	COc1ccccc1-c1n[nH]c2ncc(-c3cccc(C(=O)N4CCCC4)c3)cc12
< 1000 nM	COc1ccccc1-c1n[nH]c2ncc(-c3ccc(C(=O)N4CCCC4)cc3)cc12
< 1000 nM	COc1ccccc1-c1n[nH]c2ncc(-c3cnc4[nH]n(C)c(=O)c4c3)cc12
< 1000 nM	CCN1CCN(C(=O)c2cccc(-c3cnc4[nH]nc(-c5cc(F)ccc5OC)c4c3)c2)CC1
< 1000 nM	COc1ccccc1-c1n[nH]c2ncc(-c3ccc(C(=O)N4CCN(C)CC4)cc3)cc12
< 1000 nM	COc1ccccc1-c1n[nH]c2ncc(-c3ccc(C(=O)N4CCOCC4)cc3)cc12
< 1000 nM	COc1ccccc1-c1c[nH]c2ncc(-c3cccc(C(=O)N(C)C)c3)nc12

Continued, compound first:

Structure (SMILES)	IC50
c1ccc(-c2n[nH]c3ncc(-c4ccc5[nH]ccc5c4)cc23)cc1	< 1000 nM
c1ccc(-c2n[nH]c3ncc(-c4cccnc4)cc23)cc1	< 1000 nM
COc1ccccc1-c1n[nH]c2ncc(-c3cccnc3)cc12	< 1000 nM
COc1ccccc1-c1n[nH]c2ncc(-c3ccc(O)c(C(=O)N4CCOCC4)c3)cc12	< 1000 nM
CCc1ccccc1-c1n[nH]c2ncc(-c3cccc(C(=O)N4CCOCC4)c3)cc12	< 1000 nM
Cc1cc(F)ccc1-c1n[nH]c2ncc(-c3cccc(C(=O)N4CCOCC4)c3)cc12	< 1000 nM
Cc1ccsc1-c1n[nH]c2ncc(-c3cccc(C(=O)N4CCOCC4)c3)cc12	< 1000 nM
Cn1ccc2cc(-c3n[nH]c4ncc(-c5cccc(C(=O)N6CCOCC6)c5)cc34)ccc21	< 1000 nM
O=C(c1cccc(-c2cnc3[nH]nc(-c4ccncc4Cl)c3c2)c1)N1CCOCC1	< 1000 nM
COc1ccccc1-c1n[nH]c2ncc(-c3ccc(C(=O)NC4CC4)cc3)cc12	< 1000 nM
COc1ccccc1-c1n[nH]c2ncc(-c3cccc(S(=O)(=O)NC4CC4)c3)cc12	< 1000 nM
COc1ccccc1-c1n[nH]c2ncc(-c3cccc(C(=O)N4CCN(CCN(C)C)CC4)c3)cc12	< 1000 nM
COc1cc(-c2cnc3[nH]cc(-c4ccc(C)cc4)c3n2)ccc1O	< 1000 nM
COc1cc(-c2cnc3[nH]nc(-c4ccccc4)c3c2)ccc1O	< 1000 nM
COc1ccccc1-c1n[nH]c2ncc(-c3ccc(C(=O)N4CCCCC4)cc3)cc12	1000 to 10000 nM

target: T2, PDK1 kinase (Homo sapiens, UniProt O15530); assay: PDK1 luminescence-based enzyme assay (Kinase-Glo); type: biochemical; details: not given
T2 construct: 6x Histidine tag (TEV-cleavable) (cleaved yes); made in house; host or cells: Sf9 insect cells
T2 sequence (O15530 1-556): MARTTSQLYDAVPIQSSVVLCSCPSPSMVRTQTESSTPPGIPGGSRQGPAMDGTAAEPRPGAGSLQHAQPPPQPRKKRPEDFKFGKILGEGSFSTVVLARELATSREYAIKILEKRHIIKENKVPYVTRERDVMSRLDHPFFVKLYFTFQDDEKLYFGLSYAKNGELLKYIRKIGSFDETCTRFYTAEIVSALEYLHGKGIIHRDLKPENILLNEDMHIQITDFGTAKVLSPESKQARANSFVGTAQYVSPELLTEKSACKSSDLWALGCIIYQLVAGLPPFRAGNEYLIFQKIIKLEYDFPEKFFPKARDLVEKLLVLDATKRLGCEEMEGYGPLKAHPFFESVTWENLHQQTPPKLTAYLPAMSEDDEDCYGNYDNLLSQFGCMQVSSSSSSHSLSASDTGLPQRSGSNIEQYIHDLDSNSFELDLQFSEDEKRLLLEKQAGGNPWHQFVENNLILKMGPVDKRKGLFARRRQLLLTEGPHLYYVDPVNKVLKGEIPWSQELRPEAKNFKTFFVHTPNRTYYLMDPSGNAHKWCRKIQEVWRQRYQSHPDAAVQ
From the text: as §1
PDK1 Luminescence-Based Enzyme Assay
as §2, with “0.01 mM PDKtide;” for “100 μM Abl substrate peptide; 0.1% BSA;”, “0.1” for “0.4”, “PDK1 kinase; 5” for “Abl kinase domain; 10”, “ATP; 1 mM MgCl2;” for “ATP;”, “HEPES+0.01% Brij” for “HEPES”, “40” for “30”

IC50	Structure (SMILES)
1000 to 10000 nM	COc1ccccc1-c1n[nH]c2ncc(-c3ccc(C(=O)N4CCCC4)cc3)cc12
1000 to 10000 nM	COc1ccccc1-c1n[nH]c2ncc(-c3ccc(C(=O)N4CCN(C)CC4)cc3)cc12
1000 to 10000 nM	COc1ccccc1-c1n[nH]c2ncc(-c3ccc(C(=O)N4CCOCC4)cc3)cc12

Continued, compound first:

Structure (SMILES)	IC50
COc1cc(-c2cnc3[nH]nc(-c4ccccc4)c3c2)ccc1O	1000 to 10000 nM
COc1ccccc1-c1n[nH]c2ncc(-c3ccc(C(=O)N4CCCCC4)cc3)cc12	1000 to 10000 nM

same assay, conditions: read-out: PDK1 IC50

IC50	Structure (SMILES)
1000 to 10000 nM	COc1cc(-c2cnc3[nH]cc(-c4ccc(C)cc4)c3n2)ccc1O
